According to patent publication US20140303092A1 (CHIMERIX, INC., priority 2011, published 2014):

Experiment: Study HDP-CDV-201: safety and tolerability (adverse events, laboratory abnormalities, discontinuations)
Type: in vivo, human (adult allogeneic HSCT recipients)
Experimental: Clinical Studies of HDP-CDV were performed and described in detail in the following Examples. For example, HDP-CDV-201 is a placebo-controlled, dose-escalating trial in HSCT CMV (R+) recipients, evaluating the ability of HDP-CDV to prevent or control CMV infection was carried out. Five cohorts were established in which participants or subjects received either placebo or the HDP-CDV orally, in doses ranging from 40 mg weekly (QW) to 200 mg twice weekly (BIW). Subjects who were post-HSCT were enrolled at the time of engraftment and randomized to HDP-CDV or placebo (3 to 1 ratio) and received blinded therapy until approximately 100 day post-transplantation. HDP-CDV doses were 40 mg QW, 100 mg QW, 200 mg QW, 200 mg BIW and 100 mg BIW. Escalation to the next dose was decided by the data monitoring committee after review of the safety data from the previous Cohort. Subjects who developed CMV disease or CMV infection requiring pre-emptive therapy with local standard of care were discontinued from blinded therapy and followed for 4 weeks. Subjects who completed treatment with blinded therapy were followed for 8 weeks post-therapy.
Data from Study HDP-CDV-201 also provided characterization of the safety and tolerability profile of HDP-CDV when administered for the prevention or control of CMV infection in high risk (R^+) post-HSCT adult subjects.
The Safety population (SAFETY) included all randomized subjects who took at least one dose of study treatment. This population was used to summarize safety outcomes based on the treatment actually received, in cases where a subject was treated contrary to the randomization schedule.
The safety and tolerability profile of HDP-CDV, including subject demographics and Baseline characteristics; the AE profile; and laboratory abnormalities of interest were analyzed in the cohorts followed in this investigation.
Subjects completing the treatment period received a full course of study medication; those completing the entire study attended visits through 8 weeks of follow up. Subjects who discontinued treatment may have done so for protocol specified reasons (e.g. development of clinically significant CMV infection requiring preemptive treatment with excluded anti-CMV medications) or for other reasons (e.g., withdrawal, adverse events, loss to follow-up). The disposition of subjects in Study HDP-CDV-201 during the double-blind, placebo-controlled treatment period (through Week 11) is listed by dosing Cohort in TABLE 23.
Adverse events were examined by severity to ensure that all safety signals were identified in this study population. Because of the frequency of events in HSCT recipients, particular attention was given to evaluation of Grade 3 […], 4 (severe), and 5 (fatal) adverse events.
Only those preferred terms for which at least one Grade 3 or higher event was experienced in any treatment group are listed. Cytomegalovirus-related AEs are excluded from this analysis.
HDP-CDV is a lipid conjugate of CDV. Because CDV is known to have adverse effects on renal function and bone marrow, decreased GFR and persistent neutropenia were identified as AEs of special interest. Key renal and hematological (TABLE 30) laboratory parameters were measured and listed below by Study HDP-CDV-201 treatment groups. TABLE 30 includes abnormal levels of serum creatinine, neutrophils, platelets, WBCs, and hemoglobin and includes data at Screening and during the treatment period.
A common metric for unit based dosing of medications is by weight (mg/kg). When the distribution of weights was examined for all subjects participating in the study, the median was 78 kg and the lower 25th percentile weight was approximately 65 kg, which translates to a cut-off of ˜3 mg/kg for a 200 mg total weekly dose. Based upon this approach, a cut-off of 3 mg/kg was used to assess the frequency of diarrhea and associated GI AEs reported for the subjects in Cohorts 3 or 4a (TABLE 40).

[1] = Cohort 1, 40 mg QW, through Week 11

CCCCCCCCCCCCCCCCOCCCOP(=O)(O)COC(CO)Cn1ccc(N)nc1=O (stereo not drawn) [HDP-CDV]
6 (24.0%): Gastrointestinal AE Nausea, subjects (Cohort 1, 40 mg QW) | Intensity of Gastrointestinal AEs, Grade 2, subjects (Cohort 1, 40 mg QW)
6 (24.0%) n (%): TEAE Acute GVHD (Cohort 1, 40 mg QW, N = 25) | TEAE Nausea (Cohort 1, 40 mg QW, N = 25)
15 (60.0%): All AEs leading to withdrawal (Cohort 1, 40 mg QW, N = 25)
3 (12.0%): Gastrointestinal AE Diarrhoea, subjects (Cohort 1, 40 mg QW) | Gastrointestinal AE Dyspepsia, subjects (Cohort 1, 40 mg QW) | Total Bilirubin (Screening) >1.5-3 × ULN, subjects (Cohort 1, 40 mg QW)
1.80 fold: Serum ALT level, Peak Median fold increase from Baseline (Cohort 1, 40 mg QW)
2 (8.0%): Gastrointestinal AE Abdominal distention, subjects (Cohort 1, 40 mg QW) | Gastrointestinal AE GERD, subjects (Cohort 1, 40 mg QW) | Gastrointestinal AE Vomiting, subjects (Cohort 1, 40 mg QW) | Intensity of Gastrointestinal AEs, Grade 3, subjects (Cohort 1, 40 mg QW) | All AEs, Grade 5 (deaths) (Cohort 1, 40 mg QW, N = 25, entire study duration)
10 (40.0%) n (%): TEAE Cytomegalovirus viremia (Cohort 1, 40 mg QW, N = 25)
4 (16.0%) n (%): TEAE Abdominal pain (Cohort 1, 40 mg QW, N = 25) | TEAE Decreased appetite (Cohort 1, 40 mg QW, N = 25) | TEAE Hypokalaemia (Cohort 1, 40 mg QW, N = 25)
2 (8.0%) n (%): TEAE ALT increased (Cohort 1, 40 mg QW, N = 25) | TEAE Acute Renal Failure (Cohort 1, 40 mg QW, N = 25) | TEAE GI Reflux Disease (Cohort 1, 40 mg QW, N = 25) | TEAE Insomnia (Cohort 1, 40 mg QW, N = 25) | TEAE Neutropenia (Cohort 1, 40 mg QW, N = 25) | TEAE Vomiting (Cohort 1, 40 mg QW, N = 25)
0%: Abdominal pain leading to study drug withdrawal (Cohort 1, 40 mg QW, N = 25) | Diarrhoea leading to study drug withdrawal (Cohort 1, 40 mg QW, N = 25) | Dyspepsia leading to study drug withdrawal (Cohort 1, 40 mg QW, N = 25) | Nausea leading to study drug withdrawal (Cohort 1, 40 mg QW, N = 25) | Vomiting leading to study drug withdrawal (Cohort 1, 40 mg QW, N = 25)
0 n (%): TEAE Anxiety (Cohort 1, 40 mg QW, N = 25) | TEAE Arthralgias (Cohort 1, 40 mg QW, N = 25) | TEAE Back Pain (Cohort 1, 40 mg QW, N = 25) | TEAE Blood lactate dehydrogenase increased (Cohort 1, 40 mg QW, N = 25) | TEAE Creatinine increased (Cohort 1, 40 mg QW, N = 25) | TEAE Gamma-glutamyltransferase increased (Cohort 1, 40 mg QW, N = 25) | TEAE Liver function test abnormal (Cohort 1, 40 mg QW, N = 25) | TEAE Malnutrition (Cohort 1, 40 mg QW, N = 25) | TEAE Oral Candidiasis (Cohort 1, 40 mg QW, N = 25) | TEAE Recurrent flatulence (Cohort 1, 40 mg QW, N = 25) | TEAE Staphylococcal Bacteremia (Cohort 1, 40 mg QW, N = 25)
1 (4.0%): Gastrointestinal AE Abdominal pain upper, subjects (Cohort 1, 40 mg QW) | Gastrointestinal AE Constipation, subjects (Cohort 1, 40 mg QW) | Gastrointestinal AE Epigastric discomfort, subjects (Cohort 1, 40 mg QW) | Gastrointestinal AE Haematochezia, subjects (Cohort 1, 40 mg QW) | Gastrointestinal AE Haemorroids, subjects (Cohort 1, 40 mg QW) | Gastrointestinal AE Large intestinal ulcer, subjects (Cohort 1, 40 mg QW) | Gastrointestinal AE Oesophagitis, subjects (Cohort 1, 40 mg QW) | Hepatobiliary clinical AE Cholelithiasis, subjects (Cohort 1, 40 mg QW) | Hepatobiliary clinical AE Hyperbilirubinaemia, subjects (Cohort 1, 40 mg QW) | Total Bilirubin (Screening) >1-[…] ULN, subjects (Cohort 1, 40 mg QW)
7 (28.0%) n (%): Subjects completed study (Cohort 1, 40 mg QW)
1.50 fold: Serum ALT level, Median fold increase from Baseline at Follow-up Week 1 (Cohort 1, 40 mg QW)
3 (13.0%): Total Bilirubin (any time during therapy) >1-[…] ULN, subjects (Cohort 1, 40 mg QW)
1 (4.0%) n (%): TEAE AST increased (Cohort 1, 40 mg QW, N = 25) | TEAE Abdominal pain, Upper (Cohort 1, 40 mg QW, N = 25) | TEAE Dysgeusia (Cohort 1, 40 mg QW, N = 25) | TEAE Fatigue (Cohort 1, 40 mg QW, N = 25) | TEAE Generalized oedema (Cohort 1, 40 mg QW, N = 25) | TEAE Hyperbilirubinaemia (Cohort 1, 40 mg QW, N = 25) | TEAE Hyperglycaemia (Cohort 1, 40 mg QW, N = 25) | TEAE Hyperkalemia (Cohort 1, 40 mg QW, N = 25) | TEAE Hypocalcaemia (Cohort 1, 40 mg QW, N = 25) | TEAE Increased leukocytosis (Cohort 1, 40 mg QW, N = 25) | TEAE Pneumonia (Cohort 1, 40 mg QW, N = 25) | TEAE Pyrexia (Cohort 1, 40 mg QW, N = 25) | TEAE Renal Failure (Cohort 1, 40 mg QW, N = 25)
0: Gastrointestinal AE Abdominal discomfort, subjects (Cohort 1, 40 mg QW) | Gastrointestinal AE Diverticulum intestinal haemorragic, subjects (Cohort 1, 40 mg QW) | Gastrointestinal AE Dysphagia, subjects (Cohort 1, 40 mg QW) | Gastrointestinal AE Flatulence, subjects (Cohort 1, 40 mg QW) | Gastrointestinal AE Gastritis, subjects (Cohort 1, 40 mg QW) | Gastrointestinal AE Odynophagia, subjects (Cohort 1, 40 mg QW) | Gastrointestinal AE Retching, subjects (Cohort 1, 40 mg QW) | Hepatobiliary clinical AE Hepatomegaly, subjects (Cohort 1, 40 mg QW) | Hepatobiliary clinical AE Jaundice, subjects (Cohort 1, 40 mg QW) | Hepatobiliary clinical AE Liver injury, subjects (Cohort 1, 40 mg QW) | Intensity of Gastrointestinal AEs, Grade 4, subjects (Cohort 1, 40 mg QW) | Intensity of Gastrointestinal AEs, Grade 5, subjects (Cohort 1, 40 mg QW) | Total Bilirubin (Screening) >3-10 × ULN, subjects (Cohort 1, 40 mg QW) | Total Bilirubin (Screening) >10 × ULN, subjects (Cohort 1, 40 mg QW) | Total Bilirubin (any time during therapy) >3-10 × ULN, subjects (Cohort 1, 40 mg QW) | Total Bilirubin (any time during therapy) >10 × ULN, subjects (Cohort 1, 40 mg QW) | ALT (Screening) >3 × ULN-5 × ULN, subjects (Cohort 2, 100 mg QW) | ALT (Screening) >5 × ULN-10 × ULN, subjects (Cohort 2, 100 mg QW) | ALT (Screening) >10 × ULN-20 × ULN, subjects (Cohort 2, 100 mg QW) | ALT (Screening) >20 × ULN, subjects (Cohort 2, 100 mg QW) | ALT (any time during therapy) >5 × ULN-10 × ULN, subjects (Cohort 2, 100 mg QW) | ALT (any time during therapy) >20 × ULN, subjects (Cohort 2, 100 mg QW) | AST (Screening) >3 × ULN-5 × ULN, subjects (Cohort 2, 100 mg QW) | AST (Screening) >5 × ULN-10 × ULN, subjects (Cohort 2, 100 mg QW) | AST (Screening) >10 × ULN-20 × ULN, subjects (Cohort 2, 100 mg QW) | AST (Screening) >20 × ULN, subjects (Cohort 2, 100 mg QW) | AST (any time during therapy) >5 × ULN-10 × ULN, subjects (Cohort 2, 100 mg QW) | AST (any time during therapy) >10 × ULN-20 × ULN, subjects (Cohort 2, 100 mg QW) | AST (any time during therapy) >20 × ULN, subjects (Cohort 2, 100 mg QW)
3 (12.0%) n (%): TEAE Acute Myeloid Leukemia recurrent (Cohort 1, 40 mg QW, N = 25) | TEAE Diarrhoea (Cohort 1, 40 mg QW, N = 25) | TEAE Hyponatraemia (Cohort 1, 40 mg QW, N = 25) | TEAE Oedema peripheral (Cohort 1, 40 mg QW, N = 25) | TEAE Thrombocytopenia (Cohort 1, 40 mg QW, N = 25) | TEAE Tremor (Cohort 1, 40 mg QW, N = 25)
1.00 fold: Serum ALT level, Median fold increase from Baseline at Follow-up Week 4 (Cohort 1, 40 mg QW)
1 (3.7%): ALT (any time during therapy) >3 × ULN-5 × ULN, subjects (Cohort 2, 100 mg QW) | ALT (any time during therapy) >10 × ULN-20 × ULN, subjects (Cohort 2, 100 mg QW) | AST (any time during therapy) >3 × ULN-5 × ULN, subjects (Cohort 2, 100 mg QW)
9 (36.0%): Intensity of Gastrointestinal AEs, Grade 1, subjects (Cohort 1, 40 mg QW)
1 (4.3%): Total Bilirubin (any time during therapy) >1.5-3 × ULN, subjects (Cohort 1, 40 mg QW)
9 (36.0%) n (%): Subjects completed treatment [1]
4 (16.0%): Gastrointestinal AE Abdominal pain, subjects (Cohort 1, 40 mg QW)
16 (64.0%) n (%): Subjects who permanently discontinued treatment [1]
1 subject(s): subjects discontinued due to neutropenia (Cohort 2)
